The source of these data is article PMC9513756, “Establishing a UHPLC-MS/MS method for evaluation of the influence of stir-frying on the pharmacokinetics of seven compounds in Arctii Fructus” (RSC Advances, 2022).

The series is described as follows: Pharmacokinetics of seven compounds in rat plasma after oral administration of RAF and SAF extracts (UHPLC-MS/MS). In kind it is in vivo, male Sprague-Dawley rats. To be noted: for Tmax / half-life / MRT inf / AUC(0-inf) / AUC(0-t): male, Sprague-Dawley, rat, plasma, po, 12 g/kg.
[1] abbreviates: oral RAF extract 12 g kg^−1, n = 6.
Setting [2] is: oral RAF extract 12 g kg^−1, n = 6, read-out: Mean residence time (MRT(0–∞)).
[3] abbreviates: oral SAF extract 12 g kg^−1, n = 6.
Setting [4] is: oral SAF extract 12 g kg^−1, n = 6, read-out: Mean residence time (MRT(0–∞)).

Where two headings read alike, the source gives them in different places.

Procedure: All the components were measured using a Shimadzu UHPLC system (Shimadzu, Japan), and a Triple Quadrupole 5500 LC-MS/MS system (AB Sciex, USA) in negative ion mode. […] The gradient program was: 5–28% B (0–3 min), 28% B (3–3.5 min), 28–38% B (3.5–4 min), 38% B (4–4.5 min), 38–100% B (4.5–6 min), 100–5% B (6–7 min). With a column temperature of 40 °C, the optimized key parameters including curtain gas, collision gas, ion spray voltage, and temperature were assigned values of 55 psi, 35 psi, 4500 V, and 550 °C, respectively.
The rat plasma sample (100 μL), IS (10 μL), and 2 M HCl (20 μL) were mixed and vortex mixed for 3 min. Subsequently, 1 mL of ethyl acetate–butyl alcohol (1 : 1) was spiked into the mixed solution, and then centrifuged for 5 min at 25 000 × g.[14] Next, the supernatant was transferred and evaporated with nitrogen gas. These residues were then re-dissolved in 100 μL of 60% methanol, with the final solutions being vortex mixed for 3 min, and then centrifuged for 10 min at 25 000 × g. Finally, the supernatant was injected into the UHPLC-MS/MS for extensive analysis.
Firstly, male Sprague-Dawley rats (200–220 g) in the animal laboratory at the Nanjing University of Chinese Medicine under the standard conditions (License number: SYXK(SU)-2007-0030) were fed. The rats were fed and provided with water for one week prior to the experimentation. Secondly, before the administration of the extracts, the rats were stopped from eating but were provided with water for 12 h prior to the test. […] Depending on the clinical dosage administered to the human body, the dosage of RAF and SAF comprised 12 g kg^−1 for oral administration. In addition, 500 μL blood samples (about 250 μL plasma) were collected in 1.5 mL heparinized polythene tubes at 0, 0.033, 0.083, 0.167, 0.33, 0.5, 0.75, 1, 2, 4, 6, 8, 12, 24, and 48 h via the postorbital venous plexus veins, after oral administration of the two extracts was observed. Finally, the collected plasma was centrifuged for 5 min at 25 000 × g and stored at −20 °C before the analysis. All the pharmacokinetic parameters were evaluated with the DAS 1.0 system (Medical College of Wannan, China). Furthermore, the maximum concentration of oral administration of AF (Cmax) and the time to reach Cmax (Tmax) were derived from the concentration–time profile. All the values were given as mean ± standard deviation.

As usually defined, the Tmax is the time at which the peak concentration occurs. The term half-life denotes how long it takes for the measured level to halve. Regarding `COc1cc(C[C@H]2C(=O)OC[C@@H]2Cc2ccc(OC)c(OC)c2)ccc1O` [Arctigenin, arctigenin], the Tmax by setting is: under setting [1], 540 ± 147 min; under setting [3], 520 ± 223 min. In addition, the half-life runs as follows: under setting [1], 495 ± 65.4 min; under setting [3], 597 ± 268 min. For the same compound, the MRT inf is 14.9 ± 0.99 h under setting [2] and 17.8 ± 6.08 h under setting [4]. For the same compound, the “shape of plasma concentration-time profile” value (oral RAF and SAF) is listed as “double-peak phenomenon”. The “C (max)” value is 706.9 ± 148.9 µg/L under setting [1] and 600.8 ± 158.3 µg/L under setting [3].

In general, AUC(0-inf) refers to total exposure, with the tail of the curve extrapolated. Broadly, the AUC(0-t) is the area under the concentration-time curve up to a stated or last time point. Low values mean less exposure, high ones more exposure. With `COc1ccc(C[C@H]2COC(=O)[C@@H]2Cc2ccc(O[C@@H]3O[C@H](CO)[C@@H](O)[C@H](O)[C@H]3O)c(OC)c2)cc1OC` [Arctiin, arctiin], under setting [1], the AUC(0-inf) was determined as 1070 ± 417 ng·h/mL, the exposure AUC(0-t) stood at 826 ± 216 ng·h/mL, the Tmax worked out at 9.12 ± 5.4 min and the half-life was 180 ± 85.2 min. The “C (max)” value under setting [1] worked out at 1019.3 ± 605.9 µg/L. Further, the MRT inf under setting [2] stood at 5.33 ± 2.99 h. Moreover, under setting [3], the AUC(0-inf) came to 1970 ± 600 ng·h/mL, the area under the curve AUC(0-t) was found to be 943 ± 228 ng·h/mL, the Tmax was 4.32 ± 3 min and the half-life is 230 ± 112 min. In addition, under setting [3], the “C (max)” value is 605.7 ± 389.5 µg/L. Besides, the MRT inf under setting [4] stood at 8.98 ± 3.11 h.

With `O=C(/C=C/c1ccc(O)c(O)c1)O[C@@H]1C[C@](O)(C(=O)O)C[C@@H](O)[C@H]1O` [Chlorogenic acid, chlorogenic acid], under setting [1], the AUC(0-inf) is 1090 ± 588 ng·h/mL, the AUC(0-t) was 1070 ± 594 ng·h/mL, the Tmax is 52.5 ± 24.6 min and the “C (max)” value turned out to be 348.5 ± 161.3 µg/L. The “t 1/2” value under setting [1] was 2.175 ± 0.28 h. Also, under setting [2], the MRT inf stood at 3.72 ± 0.6 h. Moreover, under setting [3], the AUC(0-inf) came to 937 ± 660 ng·h/mL, the exposure AUC(0-t) was determined as 695 ± 307 ng·h/mL, the Tmax worked out at 6.66 ± 25.8 min and the half-life is 262 ± 19.2 min. The “C (max)” value under setting [3] turned out to be 303.7 ± 105.7 µg/L. The MRT inf under setting [4] stood at 5.09 ± 1.82 h.

In the case of `O=C(C=Cc1ccc(O)c(O)c1)OC1C(O)CC(O)(C(=O)O)CC1O` (stereo not shown) [Cryptochlorogenic acid, cryptochlorogenic acid], under setting [1], the AUC(0-inf) came out at 196 ± 59.1 ng·h/mL, the AUC(0-t) stood at 152 ± 60.7 ng·h/mL, the time of peak concentration (Tmax) was 25.9 ± 4.2 min and the half-life was 757 ± 478 min. Also, under setting [1], the “C (max)” value amounted to 34.80 ± 25.06 µg/L. Moreover, the MRT inf under setting [2] was 19.9 ± 9.37 h. In addition, under setting [3], the AUC(0-inf) stood at 280 ± 68 ng·h/mL, the exposure AUC(0-t) was found to be 218 ± 80.3 ng·h/mL, the Tmax amounted to 6.18 ± 3 min and the half-life is 809 ± 479 min. Also, the “C (max)” value under setting [3] was determined as 116.16 ± 35.41 µg/L. For the same compound, under setting [4], the MRT inf came to 16.9 ± 8.6 h.

As to `O=C(C=Cc1ccc(O)c(O)c1)OC1CC(O)(C(=O)O)CC(OC(=O)C=Cc2ccc(O)c(O)c2)C1O` (stereo not shown) [Isochlorogenic acid A, isochlorogenic acid A], under setting [1], the AUC(0-inf) is 272 ± 169 ng·h/mL, the AUC(0-t) was 219 ± 110 ng·h/mL, the Tmax stood at 47.5 ± 5.4 min and the half-life was 402 ± 217 min. For the same compound, the “C (max)” value under setting [1] is 99.05 ± 37.81 µg/L. In addition, the MRT inf under setting [2] was 8.35 ± 2.91 h. Moreover, under setting [3], the AUC(0-inf) is 180 ± 63.6 ng·h/mL, the AUC(0-t) amounted to 101 ± 73.1 ng·h/mL, the Tmax turned out to be 6 ± 4.2 min and the half-life was 196 ± 75.6 min. Also, under setting [3], the “C (max)” value was found to be 135.71 ± 25.50 µg/L. The MRT inf under setting [4] is 7.97 ± 5.12 h.

Turning to `O=C(C=Cc1ccc(O)c(O)c1)OC1CC(O)(C(=O)O)CC(O)C1OC(=O)C=Cc1ccc(O)c(O)c1` (stereo not shown) [Isochlorogenic acid B, isochlorogenic acid B], under setting [3], the half-life was 1460 ± 692 min, the “C (max)” value was 43.22 ± 26.80 µg/L, the “Mean residence time (MRT(0–∞))” value is on record as 32.75 ± 15.17 h and the T max was determined as 6.18 ± 3 min. Also, under setting [1], the “C (max)” value was 11.33 ± 8.68 µg/L, the “Mean residence time (MRT(0–∞))” value was 52.97 ± 27.74 h, the T max was determined as 7.02 ± 4.2 min and the “t 1/2” value amounted to 35.68 ± 18.24 h.

`O=C(C=Cc1ccc(O)c(O)c1)OC1CC(O)(C(=O)O)CC(O)C1OC(=O)C=Cc1ccc(O)c(O)c1` (stereo not shown) [Isochlorogenic acid C, isochlorogenic acid C]: under setting [1], the AUC(0-inf) turned out to be 84.1 ± 46.3 ng·h/mL, the AUC(0-t) stood at 71.5 ± 33.2 ng·h/mL, the Tmax amounted to 7.5 ± 3 min and the “C (max)” value stood at 39.89 ± 17.30 µg/L. In addition, under setting [1], the “Mean residence time (MRT(0–∞))” value is reported as 15.89 ± 11.25 h and the “t 1/2” value worked out at 9.002 ± 5.89 h. Besides, under setting [3], the area under the curve AUC(0-t) was determined as 79.5 ± 25.1 ng·h/mL, the time to peak (Tmax) is 4.68 ± 1.8 min, the “C (max)” value came to 103.84 ± 47.62 µg/L and the “Mean residence time (MRT(0–∞))” value worked out at 8.736 ± 5.55 h. Further, under setting [3], the “t 1/2” value was 6.770 ± 4.30 h.
